Reference: PubChem BioAssay AID248 (DTP/NCI, 2004)
Several values for one entry are separate records, joined by “and”; a condition that tells them apart may be missing. Equal values may be shown once. Inconclusive results and toxic doses are left out. Rule as the data show it: active = T/C of 150% or more; inactive = T/C below 125%.

Test system: L1210 leukemia ip in BDF1 mice, survival T/C
Experiment: NCI In Vivo Anticancer Drug Screen. Data for tumor model L1210 Leukemia (intraperitoneal) in B6D2F1 (BDF1) mice
Settings: endpoint: mean survival time, higher = longer survival
Summary of the method: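 Mice bearing the transplanted tumor received compound or vehicle. Survival of the treated group was divided by that of the vehicle-treated control group to give the ratio.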

[1] = dose: 100.0 mg/kg/injection, schedule: Q01DX009 (ip), vehicle: saline
[2] = dose: 100.0 mg/kg/injection, schedule: Q04DX003 (ip), vehicle: saline
[3] = dose: 200.0 mg/kg/injection, schedule: Q04DX003 (ip), vehicle: saline
[4] = dose: 400.0 mg/kg/injection, schedule: Q04DX003 (ip), vehicle: saline
[5] = dose: 100.0 mg/kg/injection, schedule: Q04DX003 (ip), vehicle: Klucel (hydroxypropylcellulose) (HPC)
[6] = dose: 200.0 mg/kg/injection, schedule: Q04DX003 (ip), vehicle: Klucel (hydroxypropylcellulose) (HPC)
[7] = dose: 400.0 mg/kg/injection, schedule: Q04DX003 (ip), vehicle: Klucel (hydroxypropylcellulose) (HPC)
[8] = dose: 100.0 mg/kg/injection, schedule: Q01DX009 (ip), vehicle: Klucel (hydroxypropylcellulose) (HPC)
[9] = dose: 200.0 mg/kg/injection, schedule: Q01DX009 (ip), vehicle: Klucel (hydroxypropylcellulose) (HPC)
[10] = dose: 400.0 mg/kg/injection, schedule: Q01DX009 (ip), vehicle: Klucel (hydroxypropylcellulose) (HPC)
[11] = dose: 75.0 mg/kg/injection, schedule: Q01DX001 (ip), vehicle: saline
[12] = dose: 150.0 mg/kg/injection, schedule: Q01DX001 (ip), vehicle: saline
[13] = dose: 300.0 mg/kg/injection, schedule: Q01DX001 (ip), vehicle: saline
[14] = dose: 100.0 mg/kg/injection, schedule: Q04DX003 (ip), vehicle: saline with Tween-80
[15] = dose: 400.0 mg/kg/injection, schedule: Q04DX003 (ip), vehicle: saline with Tween-80
[16] = dose: 100.0 mg/kg/injection, schedule: Q01DX001 (ip), vehicle: carboxymethylcellulose (CMC)
[17] = dose: 200.0 mg/kg/injection, schedule: Q01DX001 (ip), vehicle: carboxymethylcellulose (CMC)
[18] = dose: 400.0 mg/kg/injection, schedule: Q01DX001 (ip), vehicle: carboxymethylcellulose (CMC)
[19] = dose: 200.0 mg/kg/injection, schedule: Q04DX003 (ip), vehicle: saline with Tween-80

Measured: T/C

COc1cc2c[n+](C)c3c4cc(OC)c(OC)cc4ccc3c2cc1OC
inactive: dose: 9.6 mg/kg/injection, schedule: Q01DX009 (ip), vehicle: saline with Tween-80 119 % of control | dose: 12.5 mg/kg/injection, schedule: Q01DX009 (ip), vehicle: water 111 % of control | dose: 14.0 mg/kg/injection, schedule: Q01DX009 (ip), vehicle: saline with Tween-80 115 % of control | dose: 25.0 mg/kg/injection, schedule: Q01DX009 (ip), vehicle: water 110 % of control and 122 % of control | dose: 50.0 mg/kg/injection, schedule: Q01DX009 (ip), vehicle: water 109 % of control and 114 % of control | [1] 123 % of control | [2] 100 % of control | dose: 100.0 mg/kg/injection, schedule: Q04DX003 (ip), vehicle: water 112 % of control | dose: 180.0 mg/kg/injection, schedule: Q01DX009 (ip), vehicle: saline 109 % of control | [3] 104 % of control | dose: 200.0 mg/kg/injection, schedule: Q04DX003 (ip), vehicle: water 113 % of control | dose: 240.0 mg/kg/injection, schedule: Q04DX003 (ip), vehicle: water 112 % of control | [4] 110 % of control | dose: 400.0 mg/kg/injection, schedule: Q04DX003 (ip), vehicle: water 107 % of control

COC1=[C]([Hg][Br])C(OC)OC1OC (stereo not given)
inactive: dose: 5.0 mg/kg/injection, schedule: Q01DX009 (ip), vehicle: saline with Tween-80 89 % of control | dose: 10.0 mg/kg/injection, schedule: Q01DX009 (ip), vehicle: saline with Tween-80 95 % of control

O=C(CCCCOc1ccc([N+](=O)[O-])cc1Cl)Nc1ccc(S(=O)(=O)F)cc1
inactive: [5] 97 % of control | [6] 90 % of control | [7] 90 % of control

OC1(C#[C][Hg][C]#CC2(O)CCCCC2)CCCCC1
inactive: [5] 98 % of control | [6] 100 % of control

CCOC(=O)/C=C\c1c(OC)nc2ccccn2c1=O (tested in a mixture with another compound)
inactive: [8] 101 % of control | [5] 94 % of control | [9] 100 % of control | [6] 92 % of control | [10] 101 % of control | [7] 95 % of control

Cc1ccc(S(=O)(=O)[N-][n+]2ccccc2)cc1
inactive: [8] 93 % of control | [9] 93 % of control

N#[N+]c1c(O)cc(S(=O)(=O)O)c2ccccc12
inactive: [1] 92 % of control | [2] 94 % of control | [3] 101 % of control

Cc1ccc(C)c(CCCC(=O)O)c1
inactive: dose: 100.0 mg/kg/injection, schedule: Q01DX009 (ip), vehicle: saline with Tween-80 96 % of control | [5] 105 % of control | dose: 200.0 mg/kg/injection, schedule: Q01DX009 (ip), vehicle: saline with Tween-80 93 % of control | [6] 94 % of control | dose: 400.0 mg/kg/injection, schedule: Q01DX009 (ip), vehicle: saline with Tween-80 104 % of control | [7] 100 % of control

CCC1=C(C)CC2c3cc(OC)c(OC)cc3CCN2C1 (stereo not given)
inactive: dose: 4.0 mg/kg/injection, schedule: Q04DX003 (ip), vehicle: water 110 % of control | dose: 8.0 mg/kg/injection, schedule: Q04DX003 (ip), vehicle: water 103 % of control | dose: 16.0 mg/kg/injection, schedule: Q04DX003 (ip), vehicle: water 104 % of control | dose: 32.0 mg/kg/injection, schedule: Q04DX003 (ip), vehicle: water 108 % of control | dose: 64.0 mg/kg/injection, schedule: Q04DX003 (ip), vehicle: water 106 % of control | [11] 103 % of control | [12] 94 % of control | [13] 101 % of control

CCCCCCCCCCCCCCCCS(=O)(=O)N/N=C(/c1cccc(N)c1)N1CCCCC1
inactive: dose: 50.0 mg/kg/injection, schedule: Q04DX003 (ip), vehicle: saline with Tween-80 87 % of control | [14] 90 % of control | [15] 88 % of control

CCCCCC(C)(O)CC(C)(C)C (stereo not given)
inactive: [16] 92 % of control | [17] 97 % of control | [18] 97 % of control

C#CC1(OC(N)=O)CCCCC1
inactive: [8] 98 % of control | [9] 91 % of control | [10] 98 % of control

NCC(Cc1ccc(O)cc1)P(=O)(O)O (stereo not given)
inactive: [2] 100 % of control | [3] 95 % of control | [4] 92 % of control

CCCC1=NNC(=O)C1
inactive: [16] 100 % of control | [17] 100 % of control | [18] 96 % of control

COc1cc2ccc3c(c2cc1OC)CN1CCc2cc4c(cc2C1C3)OCO4 (stereo not given)
inactive: dose: 100.0 mg/kg/injection, schedule: Q01DX009 (ip), vehicle: saline sonified 93 % of control | dose: 100.0 mg/kg/injection, schedule: Q04DX003 (ip), vehicle: saline sonified 109 % of control | dose: 200.0 mg/kg/injection, schedule: Q01DX009 (ip), vehicle: saline sonified 109 % of control | dose: 200.0 mg/kg/injection, schedule: Q04DX003 (ip), vehicle: saline sonified 98 % of control | dose: 400.0 mg/kg/injection, schedule: Q01DX009 (ip), vehicle: saline sonified 94 % of control | dose: 400.0 mg/kg/injection, schedule: Q04DX003 (ip), vehicle: saline sonified 101 % of control

Cc1cc(C)c(C(=O)O)c(C)c1Br
inactive: dose: 50.0 mg/kg/injection, schedule: Q01DX001 (ip), vehicle: other 98 % of control | dose: 100.0 mg/kg/injection, schedule: Q01DX001 (ip), vehicle: other 104 % of control | [14] 96 % of control | dose: 200.0 mg/kg/injection, schedule: Q01DX001 (ip), vehicle: other 96 % of control | [19] 94 % of control | dose: 400.0 mg/kg/injection, schedule: Q01DX001 (ip), vehicle: other 111 % of control | [15] 103 % of control

O=[N+]([O-])c1cc(C(F)(F)F)ccc1Oc1ccccc1
inactive: [14] 95 % of control | [19] 110 % of control | [15] 101 % of control

NC(=S)SCCC(=O)O
inactive: [8] 96 % of control | [9] 100 % of control | [6] 93 % of control | [10] 94 % of control | [7] 92 % of control

Nc1ccc(S(=O)[O-])cc1.Nc1ccc(S(=O)[O-])cc1.[Zn+2]
inactive: [11] 95 % of control | [12] 96 % of control | [13] 102 % of control

CN=C(N)N(C)NCc1ccccc1
inactive: dose: 25.0 mg/kg/injection, schedule: Q04DX003 (ip), vehicle: saline 100 % of control | dose: 50.0 mg/kg/injection, schedule: Q04DX003 (ip), vehicle: saline 109 % of control | dose: 100.0 mg/kg/injection, schedule: Q01DX001 (ip), vehicle: saline 97 % of control | [2] 105 % of control

CCCCCCCCCCCCCCCCCCCC(=O)COS(C)(=O)=O
inactive: dose: 100.0 mg/kg/injection, schedule: Q04DX002 (ip), vehicle: Klucel (hydroxypropylcellulose) (HPC) 88 % of control | dose: 200.0 mg/kg/injection, schedule: Q04DX002 (ip), vehicle: Klucel (hydroxypropylcellulose) (HPC) 88 % of control | dose: 400.0 mg/kg/injection, schedule: Q04DX002 (ip), vehicle: Klucel (hydroxypropylcellulose) (HPC) 88 % of control
